Reference: ChEMBL document CHEMBL1201862, “PubChem BioAssay data set” (2004)
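A five-concentration, 48-hour dose response in 96-well plates underlies each endpoint, interpolated linearly between surrounding concentrations. GI50 is the concentration that inhibits growth by half.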 Activity calls are given as the source filed them. Rule as the data show it: active = GI50 up to about 1.1 µM and inactive = higher.

Tests used:
Assay in all cases: NCI tumour cell line growth inhibition, 48 h
MOLT-4 = system: MOLT-4
CCRF-CEM = system: CCRF-CEM
HOP-92 = system: HOP-92
KM-20L2 = system: KM-20L2
HL-60 = system: HL-60
OVCAR-4 = system: OVCAR-4
SF-539 = system: SF-539
CAKI-1 = system: CAKI-1
A549 = system: A549
UACC-257 = system: UACC-257
HOP-62 = system: HOP-62
SK-MEL-28 = system: SK-MEL-28
786-0 = system: 786-0
SK-OV-3 = system: SK-OV-3
SK-MEL-5 = system: SK-MEL-5
K562 = system: K562
HCT-15 = system: HCT-15
Hs-578T = system: Hs-578T
SR = system: SR
PC-3 = system: PC-3

SMILES | GI50 (MOLT-4) | GI50 (CCRF-CEM) | GI50 (HOP-92) | GI50 (KM-20L2) | GI50 (HL-60) | GI50 (OVCAR-4) | GI50 (SF-539) | GI50 (CAKI-1) | GI50 (A549) | GI50 (UACC-257) | GI50 (HOP-62) | GI50 (SK-MEL-28) | GI50 (786-0) | GI50 (SK-OV-3) | GI50 (SK-MEL-5) | GI50 (K562) | GI50 (HCT-15) [µM] | GI50 (Hs-578T) | GI50 (SR) | GI50 (PC-3)
Nc1ccc(C(=O)NN2C(=O)C(Cl)C2c2ccc(O)cc2)cc1 (stereo not drawn) | 16.1 µM (inactive) | 12.3 µM (inactive) | 24.5 µM (inactive) | 19.9 µM (inactive) | 15.6 µM (inactive) | 19.1 µM (inactive) | 19.1 µM (inactive) | 25.1 µM (inactive) | 56.9 µM (inactive) | 36.1 µM (inactive) | 21.7 µM (inactive) | 22.1 µM (inactive) | 17.5 µM (inactive) | 22.8 µM (inactive) | 17.2 µM (inactive) | 21.3 µM (inactive) | 21.4 |  |  | 
CCOC(=O)COc1ccccc1/C=C1\CCC(CN(C)C)C1=O (stereo not drawn) | 2.11 µM (inactive) | 1.1 µM (active) | 10.9 µM (inactive) | 11.6 µM (inactive) | 0.607 µM (active) | 16.5 µM (inactive) | 11.9 µM (inactive) | 3.02 µM (inactive) | 21.5 µM (inactive) | 5.66 µM (inactive) | 20.6 µM (inactive) | 2.62 µM (inactive) | 2.94 µM (inactive) | 17.5 µM (inactive) | 10.4 µM (inactive) | 1.49 µM (inactive) | 3.24 |  |  | 
COc1cc(C2c3cc4c(cc3OC(NCCO)C2C)OCO4)cc(OC)c1OC (stereo not drawn) | 0.489 µM (active) | 0.197 µM (active) | 0.188 µM (active) |  | 0.309 µM (active) | 12.7 µM (inactive) | 0.232 µM (active) | 0.485 µM (active) | 0.762 µM (active) | 1.61 µM (inactive) | 0.289 µM (active) | 0.713 µM (active) | 1.8 µM (inactive) | 0.553 µM (active) | 0.323 µM (active) | 0.195 µM (active) | 0.347 | 0.325 µM (active) | 0.248 µM (active) | 0.418 µM (active)
O=C1NC(=N/c2ccccc2)/C(=N\c2ccccc2)N1c1ccccc1 | 25.9 µM (inactive) | 30.3 µM (inactive) | 16.3 µM (inactive) |  | 26.2 µM (inactive) | 18.4 µM (inactive) | 17.4 µM (inactive) | 16.3 µM (inactive) | 15.9 µM (inactive) | 15.8 µM (inactive) | 18.5 µM (inactive) | 14.8 µM (inactive) | 15.5 µM (inactive) | 17.6 µM (inactive) | 15.9 µM (inactive) | 26.5 µM (inactive) | 14.5 | 16.6 µM (inactive) | 20 µM (inactive) | 14.5 µM (inactive)
COC(=O)/C(C#N)=C1\NC(=O)CC(c2ccccc2)C1C#N (stereo not drawn) | > 100 µM (inactive) | > 100 µM (inactive) | 63.5 µM (inactive) |  | > 100 µM (inactive) | > 100 µM (inactive) | > 100 µM (inactive) | > 100 µM (inactive) | > 100 µM (inactive) | > 100 µM (inactive) | > 100 µM (inactive) | > 100 µM (inactive) | > 100 µM (inactive) | > 100 µM (inactive) | > 100 µM (inactive) | > 100 µM (inactive) | > 100 | > 100 µM (inactive) | > 100 µM (inactive) | > 100 µM (inactive)
COc1c(CC=C(C)C)c(O)c(C(CC(C)C)c2c(O)c(CC=C(C)C)c(O)c(C(C)=O)c2O)c(O)c1C(C)=O (stereo not drawn) | 0.644 µM (active) | 0.278 µM (active) | 0.191 µM (active) |  | 0.767 µM (active) | 1.44 µM (inactive) | 1.16 µM (inactive) | 1.21 µM (inactive) | 1.8 µM (inactive) | 1.45 µM (inactive) | 1.4 µM (inactive) | 0.695 µM (active) | 1.63 µM (inactive) | 2.08 µM (inactive) | 0.482 µM (active) | 0.29 µM (active) | 0.4 | 1.07 µM (active) | 1.1 µM (active) | 0.305 µM (active)
O=CC(=C(I)I)c1ccccc1 | 0.289 µM (active) | 0.2 µM (active) | 2.57 µM (inactive) |  | 0.0635 µM (active) | 2.03 µM (inactive) | 2.35 µM (inactive) | 3.03 µM (inactive) | 20.2 µM (inactive) | 2.9 µM (inactive) | 7.24 µM (inactive) | 2.64 µM (inactive) | 2.14 µM (inactive) | 15.9 µM (inactive) | 4.07 µM (inactive) | 0.264 µM (active) | 1.82 | 2.83 µM (inactive) | 0.197 µM (active) | 3.7 µM (inactive)
CC(=O)N1N=C(N)CC1=O | > 100 µM (inactive) | > 100 µM (inactive) | > 100 µM (inactive) |  | > 100 µM (inactive) | > 100 µM (inactive) | > 100 µM (inactive) | > 100 µM (inactive) | > 100 µM (inactive) | > 100 µM (inactive) | > 100 µM (inactive) | > 100 µM (inactive) | > 100 µM (inactive) | > 100 µM (inactive) | > 100 µM (inactive) | > 100 µM (inactive) | > 100 | > 100 µM (inactive) | > 100 µM (inactive) | > 100 µM (inactive)
